Reference: patent US8969552B2, “Arylsulfonylmethyl or arylsulfonamide substituted aromatic compounds suitable for treating disorders that respond to modulation of the dopamine D3 receptor” (AbbVie Deutschland GmbH & Co. KG, priority 2004, dated 2015)
Counter-ions that a name gives are not always drawn.

How the values were obtained:
[1] = target: T1, human dopamine D3 receptors (Homo sapiens, UniProt P35462); assay: Dopamine D3 receptor binding, [125I]-iodosulpride displacement; settings: for Ki: membranes of HEK-293 cells stably expressing human D3 receptor, 0.1 nM [125I]-iodosulpride, 25° C., 60 minutes; for Ki(D2)*/Ki(D3)*: selectivity ratio of receptor binding constants D2 versus D3
T1 construct: expressed in transfected cells; membranes
T1 sequence (P35462 whole entry): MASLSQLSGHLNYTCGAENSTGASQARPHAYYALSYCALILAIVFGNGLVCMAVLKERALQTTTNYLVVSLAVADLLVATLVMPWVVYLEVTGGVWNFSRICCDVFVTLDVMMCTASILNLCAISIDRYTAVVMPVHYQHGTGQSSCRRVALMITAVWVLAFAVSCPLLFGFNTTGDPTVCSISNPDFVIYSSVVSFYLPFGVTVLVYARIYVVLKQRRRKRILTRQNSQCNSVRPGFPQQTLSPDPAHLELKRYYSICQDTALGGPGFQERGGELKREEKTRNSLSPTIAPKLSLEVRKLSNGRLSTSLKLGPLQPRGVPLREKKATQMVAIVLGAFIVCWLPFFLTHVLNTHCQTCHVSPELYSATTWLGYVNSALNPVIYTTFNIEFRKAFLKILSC
Protocol: (§1) The substance to be tested was either dissolved in methanol/Chremophor® (BASF-AG) or in dimethyl sulfoxide and then diluted with water to the desired concentration.
(§2) Each assay mixture was run in triplicate.
The incubation buffer contained 50 mM tris, 120 mM NaCl, 5 mM KCl, 2 mM CaCl2, 2 mM MgCl2 and 0.1% bovine serum albumin, 10 μM quinolone and 0.1% ascorbic acid (prepared fresh daily). The buffer was adjusted to pH 7.4 with HCl.
(§3) Measurement and Analysis:
(§4) After having been incubated at 25° C. for 60 minutes, the assay mixtures were filtered through a Whatman GF/B glass fiber filter under vacuum using a cell collecting device. The filters were transferred to scintillation viols using a filter transfer system. After 4 ml of Ultima Gold® (Packard) have been added, the samples were shaken for one hour and the radioactivity was then counted in a Beta-Counter (Packard, Tricarb 2000 or 2200CA). The cpm values were converted into dpm using a standard quench series and the program belonging to the instrument.
(§5) The inhibition curves were analyzed by means of iterative nonlinear regression analysis using the Statistical Analysis System (SAS) which is similar to the “LIGAND” program described by Munson and Rodbard.
(§6) The results of the receptro binding studies are expressed as receptor binding constants Ki(D2) and Ki(D3), respectively, as herein before described, and given in table 2.

[2] = target: T2, human dopamine D2L receptors (long isoform) (Homo sapiens, UniProt P14416); assay: Dopamine D2L receptor binding, [125I] iodospiperone displacement; settings: membranes of HEK-293 cells stably expressing human D2L receptor; 0.01 nM [125I] iodospiperone; 25° C., 60 minutes; read-out: Ki(D2)*
T2 construct: expressed in transfected cells; membranes
T2 sequence (P14416 whole entry, canonical isoform): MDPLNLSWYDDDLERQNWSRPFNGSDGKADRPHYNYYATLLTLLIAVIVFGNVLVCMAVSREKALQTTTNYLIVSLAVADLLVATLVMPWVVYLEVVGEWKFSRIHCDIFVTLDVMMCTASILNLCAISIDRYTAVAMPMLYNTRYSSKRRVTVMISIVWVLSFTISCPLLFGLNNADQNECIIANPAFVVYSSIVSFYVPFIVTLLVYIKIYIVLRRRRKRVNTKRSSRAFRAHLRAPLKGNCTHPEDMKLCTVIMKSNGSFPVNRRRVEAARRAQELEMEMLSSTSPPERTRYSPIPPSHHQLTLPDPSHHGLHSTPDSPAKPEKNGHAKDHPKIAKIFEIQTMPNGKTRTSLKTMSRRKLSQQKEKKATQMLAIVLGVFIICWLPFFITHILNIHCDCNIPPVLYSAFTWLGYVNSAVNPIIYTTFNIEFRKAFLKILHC
Protocol: as §1, §2
The incubation buffer contained 50 mM tris, 120 mM NaCl, 5 mM KCl, 2 mM CaCl2, 2 mM MgCl2 and 0.1% bovine serum albumin. The buffer was adjusted to pH 7.4 with HCl.
as §3, §4, §5, §6

Row | SMILES | Ki [1] [nM] | Ki(D2)*/Ki(D3)* [1] | Ki [2] [nM]
1 | CCCN[C@H]1CCc2cc(NS(=O)(=O)c3ccc(C(C)C(F)(F)F)cc3)ccc2C1 (mixture of isomers) [Example 40, N—((S)-6-Propylamino-5,6,7,8-tetrahydro-naphthalen-2-yl)-4-(2,2,2-trifluoro-1-methyl-ethyl)benzenesulfonamide-racemate] | 1.4 | 221 | 309
2 | CCC(=O)N1CCC[C@@H]2Cc3cc(NS(=O)(=O)c4ccc(C(C)C)cc4)ccc3C[C@H]21 (relative stereo) [Example 22, trans-4-Isopropyl-N-(1-propionyl-1,2,3,4,4a,5,10,10a-octahydro-benzo[g]quinolin-7-yl)benzenesulfonamide] | 19 | 96 | 1830
3 | CCCN1CCC[C@@H]2Cc3cc(NS(=O)(=O)c4ccc(C(C)C)cc4)ccc3C[C@H]21 (relative stereo) [Example 23, trans-4-Isopropyl-N-(1-propyl-1,2,3,4,4a,5,10,10a-octahydro-benzo[g]quinolin-7-yl)benzenesulfonamide] | 2.3 | 50 | 116
4 | CCCN[C@@H]1CCc2ccc(NS(=O)(=O)c3ccc(C(C)C)cc3)cc2C1 [Example 2, (R)-4-Isopropyl-N—((R)-7-propylamino-5,6,7,8-tetrahydro-naphthalen-2-yl)benzenesulfonamide] | 14 | 32 | 442
5 | CCCN[C@@H]1CCc2cc(NS(=O)(=O)c3ccc(C(C)C)cc3)ccc2C1 [Example 3, 4-Isopropyl-N—((R)-6-propylamino-5,6,7,8-tetrahydro-naphthalen-2-yl)-benzenesulfonamide] | 0.34 | 30 | 10.3
6 | C=CCN[C@@H]1CCc2cc(NS(=O)(=O)c3ccc(C(C)C)cc3)ccc2C1.Cl [Example 6, N—((R)-6-Allylamino-5,6,7,8-tetrahydro-naphthalen-2-yl)-4-isopropyl-benzenesulfonamide, hydrochloride] | 0.28 | 52 | 14.5
7 | C=CCN[C@H]1CCc2cc(NS(=O)(=O)c3ccc(C(C)C)cc3)ccc2C1.Cl [Example 7, N—((S)-6-Allylamino-5,6,7,8-tetrahydro-naphthalen-2-yl)-4-isopropyl-benzenesulfonamide, hydrochloride] | 1.97 | 77 | 152
8 | CCCN[C@H]1CCc2cc(NS(=O)(=O)c3ccc(C(C)C)cc3)ccc2C1.Cl [Example 8, 4-Isopropyl-N—((S)-6-propylamino-5,6,7,8-tetrahydro-naphthalen-2-yl)-benzenesulfonamide, hydrochloride] | 0.5 | 102 | 50.6
9 | C=CCN[C@H]1CCc2cc(N(C)S(=O)(=O)c3ccc(C(C)C)cc3)ccc2C1 [Example 9, N—((S)-6-Allylamino-5,6,7,8-tetrahydro-naphthalen-2-yl)-4-isopropyl-N-methylbenzenesulfonamide] | 15.3 | 27 | 416
10 | CCCN[C@H]1CCc2cc(N(C)S(=O)(=O)c3ccc(C(C)C)cc3)ccc2C1 [Example 10, 4-Isopropyl-N-methyl-N—((S)-6-propylamino-5,6,7,8-tetrahydro-naphthalen-2-yl)benzenesulfonamide] | 8.2 | 29 | 238
11 | CCCN[C@H]1CCc2cc(NS(=O)(=O)c3ccc(OC(F)F)cc3)ccc2C1.Cl [Example 46, 4-Difluoromethoxy-N—((S)-6-propylamino-5,6,7,8-tetrahydro-naphthalen-2-yl)benzenesulfonamide, hydrochloride] | 2.5 | 100 | 
12 | CCCN[C@H]1CCc2cc(NS(=O)(=O)c3ccc(CC(F)(F)F)cc3)ccc2C1.Cl [Example 47, N—((S)-6-Propylamino-5,6,7,8-tetrahydro-naphthalen-2-yl)-4-(2,2,2-trifluoro-ethyl)benzenesulfonamide, hydrochloride] | 5.1 | 70 | 
13 | CCCN[C@H]1CCc2cc(NS(=O)(=O)c3ccc(C4CC4(F)F)cc3)ccc2C1.Cl (stereo partly drawn) [Example 48, 4-(2,2-Difluoro-cyclopropyl)-N—((S)-6-propylamino-5,6,7,8-tetrahydro-naphthalen-2-yl)benzenesulfonamide, hydrochloride] | 1.5 | 128 | 
14 | CCCN[C@H]1CCc2cc(NS(=O)(=O)c3ccc(N4CCCC4)cc3)ccc2C1.Cl [Example 49, N—((S)-6-Propylamino-5,6,7,8-tetrahydro-naphthalen-2-yl)-4-pyrrolidin-1-ylbenzenesulfonamide, hydrochloride] | 1.3 | 63 | 
15 | CCCN[C@H]1CCc2cc(NS(=O)(=O)c3ccc(N(C)C)cc3)ccc2C1.Cl [Example 50, 4-Dimethylamino-N—((S)-6-propylamino-5,6,7,8-tetrahydro-naphthalen-2-yl)benzenesulfonamide, hydrochloride] | 1.8 | 95 | 
16 | CCCN[C@H]1CCc2cc(NS(=O)(=O)c3ccc(CCCF)cc3)ccc2C1 [Example 51, 4-(3-Fluoro-propyl)-N—((S)-6-propylamino-5,6,7,8-tetrahydro-naphthalen-2-yl)benzenesulfonamide] | 1.7 | 56 | 
17 | CCCN[C@H]1CCc2cc(NS(=O)(=O)c3ccc(CCC)s3)ccc2C1.Cl [Example 52, 5-Propyl-thiophene-sulfonic acid ((S)-6-propylamino-5,6,7,8-tetrahydro-naphthalen-2-yl)amide, hydrochloride] | 0.7 | 71 | 
18 | CCCN[C@H]1CCc2cc(NS(=O)(=O)c3ccc([C@H](C)CF)cc3)ccc2C1.Cl [Example 55, 4-((S)-2-Fluoro-1-methyl-ethyl)-N—((S)-6-propylamino-5,6,7,8-tetrahydro-naphthalen-2-yl)benzenesulfonamide, hydrochloride] | 1.7 | 230 | 
19 | CCCN[C@H]1CCc2cc(NS(=O)(=O)c3ccc([C@@H](C)CF)cc3)ccc2C1.Cl [Example 56, 4-((R)-2-Fluoro-1-methyl-ethyl)-N—((S)-6-propylamino-5,6,7,8-tetrahydro-naphthalen-2-yl)benzenesulfonamide, hydrochloride] | 2.4 | 161 | 
20 | CCCN[C@@H]1CCc2cc(NS(=O)(=O)c3ccc(CCCF)cc3)ccc2C1.Cl [Example 58, 4-(3-Fluoro-propyl)-N—((R)-6-propylamino-5,6,7,8-tetrahydro-naphthalen-2-yl)benzenesulfonamide, hydrochloride] | 0.15 | 229 | 
21 | CCCN[C@H]1CCc2cc(NS(=O)(=O)c3ccc(C(C)=O)cc3)ccc2C1 [Example 60, 4-Acetyl-N—((S)-6-propylamino-5,6,7,8-tetrahydro-naphthalen-2-yl)-benzenesulfonamide] | 9.4 | 274 | 
22 | CCCN[C@H]1CCc2cc(NS(=O)(=O)c3ccc(C(C)(C)F)cc3)ccc2C1.O=C(O)C(F)(F)F [Example 62, 4-(1-Fluoro-1-methyl-ethyl)-N—((S)-6-propylamino-5,6,7,8-tetrahydro-naphthalen-2-yl)benzenesulfonamide, trifluoro acetate] | 6.2 | 77 | 
23 | CCN[C@H]1CCc2cc(NS(=O)(=O)c3ccc(OC(F)(F)F)cc3)ccc2C1.Cl [Example 63, N—((S)-6-Ethylamino-5,6,7,8-tetrahydro-naphthalen-2-yl)-4-trifluoromethoxybenzenesulfonamide, hydrochloride] | 30.9 | 40 | 
24 | CCN[C@H]1CCc2cc(NS(=O)(=O)c3ccc(C(C)C)cc3)ccc2C1.Cl [Example 64, N—((S)-6-Ethylamino-5,6,7,8-tetrahydro-naphthalen-2-yl)-4-isopropyl-benzenesulfonamide, hydrochloride] | 3.4 | 70 | 
25 | CC(C)c1ccc(S(=O)(=O)Nc2ccc3c(c2)CC[C@H](NCCCF)C3)cc1.Cl [Example 68, N—[(S)-6-(3-Fluoro-propylamino)-5,6,7,8-tetrahydro-naphthalen-2-yl]-4-isopropylbenzenesulfonamide, hydrochloride] | 2 | 42 | 
26 | CCN[C@H]1CCc2cc(NS(=O)(=O)c3ccc(N4CCCC4)cc3)ccc2C1.Cl [Example 70, N—((S)-6-Ethylamino-5,6,7,8-tetrahydro-naphthalen-2-yl)-4-pyrrolidin-1-ylbenzenesulfonamide, hydrochloride] | 3.6 | 61 | 
27 | CCCN[C@H]1CCc2cc(NS(=O)(=O)c3ccc(OC(F)F)cc3)ccc2C1 [Example 74, 4-Difluoromethoxy-N—((S)-6-propylamino-5,6,7,8-tetrahydro-naphthalen-2-yl)benzenesulfonamide, hydrochloride] |  |  | 250
